According to paper PMC3025077 (Peptides, 2010):

How the values were obtained:
hY1-CHO = assay: Non-specific binding of agonists, saturation and time course, hY1-CHO; conditions: hyperbolic fit; 50 pM tracer at 100 nM unlabeled peptide over 3, 6, 10, 20 and 30 min at 25 °C
human Y5 receptor = target: T1, human Y5 receptor (Homo sapiens, UniProt Q15761); conditions: uncompeted specific binding at 50 pM [125I]agonist as percent of the specific binding of [125I]hNPY; human Y5 in HEK293 cells; ± S.E.M.; SEM
T1 sequence (Q15761 1-445): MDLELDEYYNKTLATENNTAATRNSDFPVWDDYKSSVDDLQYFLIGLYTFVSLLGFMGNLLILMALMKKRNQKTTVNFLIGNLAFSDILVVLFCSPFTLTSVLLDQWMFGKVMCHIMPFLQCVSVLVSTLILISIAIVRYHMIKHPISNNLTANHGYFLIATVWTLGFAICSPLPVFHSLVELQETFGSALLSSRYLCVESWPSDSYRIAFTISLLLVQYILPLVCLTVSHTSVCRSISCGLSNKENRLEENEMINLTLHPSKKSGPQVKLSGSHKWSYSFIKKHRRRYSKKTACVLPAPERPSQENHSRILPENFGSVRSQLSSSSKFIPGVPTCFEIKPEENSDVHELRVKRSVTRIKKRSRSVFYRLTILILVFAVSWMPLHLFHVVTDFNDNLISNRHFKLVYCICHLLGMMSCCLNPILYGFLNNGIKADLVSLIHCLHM

Half-period of equilibration of non-specific binding, hY1-CHO (hY1-CHO): 1.72 ± 0.11 min | % of NPY binding, Y5 (human Y5 receptor): 96.5 ±16%
Substance: human (Leu^31,Pro^34) peptide YY [LP-hPYY]
